# Experimental data taken from PMC3438169 (PLoS ONE, 2012).
# *1 amine or outer side, *2 acyl side, *3 side chain or, on linkers, in order; H or OH if unused. Where a SMILES comes first, the peptide text is derived from it. [ ]: non-standard residue; d: D form. dAla(ψthiazole) = C[C@@H](N[*:1])c1nc(C(=O)[*:2])cs1; Trp(4-OMe) = COc1cccc2[nH]cc(C[C@H](N)C(=O)O)c12; dAbu = CC[C@@H](N)C(=O)O; Dha = C=C(N)C(=O)O; Sar = CNCC(=O)O
# Key:
# [1] = system: recombinant human mEF-G1 S494F; assay: Biacore binding, human mEF-G1 S494F; conditions: 10, 20, 40 µM, HBS-P+ pH 7.4, 4% DMSO
# Excerpt: GFM1 encoding the active site of EF-G1 (residues 36–751) was PCR amplified from pDONR221 constructs using primers (GGGGACAAGTTTGTACAAAAAAGCAGGCTTAATGTCTTCATCAGGGGTGATT, GGGGACCACTTTGTACAAGAAAGCTGGGTATTAGTTCTTGGCTTTTCC). P. aeroginosa fusA1 encoding full-length EF-G was PCR amplified from pET28a-PaEFG-Nhis using primers (GGGGACCACTTTGTACAAGAAAGCTGGGTATTATCAACCTTGTTTTTT, GGGGACAAGTTTGTACAAAAAAGCAGGCTTAATGGCCCGTACTACACCC). Purified PCR products were cloned into the pDONR221 vector using Gateway cloning and BP Clonase II (Invitrogen), shuttled into an E.coli protein expression vector for N-terminal tagging (Avitag-His6 vector) using LR Clonase II (Invitrogen), and verified by sequencing. Avitag-His6-hEF-G1 and Avitag-His6-PaEF-G constructs were transformed into BL21-AI cells (Invitrogen) and isolated single colonies were used to inoculate 5 ml cultures which were grown overnight at 37°C with shaking. […]. Briefly, protein was captured on column using binding buffer (50 mM Tris; pH 7.5, 300 mM NaCl, 20 mM imidazole, 10% glycerol), washed extensively with washing buffer (50 mM Tris; pH 7.5, 500 mM NaCl, 30 mM imidazole, 10% glycerol), and then eluted with elution buffer (50 mM Tris; pH 7.5, 500 mM NaCl, 250 mM imidazole, 10% glycerol). […]
# [2] = system: yeast (BY4741, BYΔ8); assay: Yeast susceptibility determination, wild-type and BYΔ8; type: cell-based, S. cerevisiae; conditions: for Activity against yeast (in words): rich medium with glucose
# Experimental: Yeast strains used in this study are BY4741 [32] and strain BYΔ8, derived from BY4741 but deleted for eight genes involved in drug resistance (efflux pumps: snq2, pdr5, yor1; transcription factors: pdr1, pdr2, pdr3, yap1, yrm1). […] Starting OD600 was 0.1, total volume per well 120 µl. Plates were incubated at 30°C with 770 RPM orbital shaking.
# [3] = system: succinate dehydrogenase flavoprotein subunit (SDHA); assay: Immunoblot of nuclear-encoded SDHA in HCT116 and RKO cells; type: cell-based, human; conditions: 4 days
# Experimental: Whole cell lysates were prepared using RIPA buffer (Cell Signaling Technology) supplemented with EDTA-free protease inhibitor cocktail (Roche Applied Science), cleared by centrifugation at 16,000× g for 10 min, normalized based on protein concentration (Bio-Rad protein assay), boiled in NuPAGE LDS sample buffer (Invitrogen) supplemented with 2% ß-mercaptoethanol, and separated on NuPAGE 4–12% Bis-Tris gels using MOPS running buffer (Invitrogen). Proteins were transferred to nitrocellulose membranes and probed with the following primary antibodies: rabbit polyclonal antibody against mEF-G1 (Sigma, HPA034765), rabbit monoclonal antibody against GAPDH (Cell Signaling Technology, 14C10), mouse monoclonal antibodies against COX2 (Invitrogen, A6404) or SDHA (MitoSciences, MS204). Immobilized primary antibodies were visualized using HRP-conjugated anti-rabbit or anti-mouse IgG (Millipore, AP307P and AP308P) and enhanced chemiluminescence (Pierce).
# [4] = system: B. multivorans; assay: Resistant mutant selection, B. multivorans; type: cell-based; conditions: Mueller-Hinton agar, 4 or 16 µg/ml argyrin B
# Experimental: Resistance frequencies were calculated as the number of CFU (mutants) on drug containing plates divided by the number of CFU plated. Whole genome sequencing was done as described previously. The fusA1 gene from P. aeruginosa was generated for sequencing in two parts, using primer pairs PAEFF1/PAEFR1: […]/[…] and EFF2/EFR1: […]/[…]. The fusA1 gene from B. multivorans was generated as a single band using BCEFGF1/BCEFGR1: […]/[…]. Nucleotide sequencing of the products was done by Agencourt (Beverly MA).
# [5] = system: efflux-defective yeast strain (BYΔ8); assay: Yeast colony formation on ethanol/glycerol medium; type: cell-based, S. cerevisiae; conditions: 0.1 µM argyrin B
# Experimental: Strain BYΔ8 was incubated in 2.5% ethylmethanesulfonate until only 50% of the cells formed colonies. […] Amplifying the mutated MEF1 gene and transforming it into non-mutagenized BYΔ8 cells validated identified mutations in MEF1.
smiles,measurement,setting,value
C=C1NC(=O)CN(C)C(=O)CNC(=O)[C@H](Cc2c[nH]c3cccc(OC)c23)NC(=O)[C@H](Cc2c[nH]c3ccccc23)NC(=O)c2csc(n2)[C@@H](C)NC(=O)[C@@H](CC)NC1=O [argyrin B] (cyclo([dAbu][dAla(ψthiazole)]W[Trp(4-OMe)]G[Sar][Dha])),Binding to human mEF-G1 (in words),[1],still bound
same,Activity against yeast (in words),"[2]; BYΔ8 (strain CMB970, eight genes involved in efflux deleted)",inactive
same,Inhibitory activity on glucose-grown yeast (in words),[2]; glucose-grown yeast,lack of inhibitory activity
same,Activity against yeast (in words),[2]; wild-type yeast (BY4741),inactive
same,SDHA protein level (in words),"[3]; HCT116, 1 µM argyrin B",did not affect the levels
same,SDHA protein level (in words),"[3]; RKO, 1 µM argyrin B",did not affect the levels
same,frequency of argyrin B resistant mutants,[4],10^−9–10^−8
same,Colony formation (in words),[5],abolished colony formation
